# From patent publication US9643970B2, “Substituted imidazo [1,5-a]pyrazines as PDE9 inhibitors” (H Lundbeck A/S, priority 2012, dated 2017)
# Like-named read-outs stand apart in the source and are kept apart here.
# Target: PDE9 (Homo sapiens, UniProt O76083)
# Test: PDE9 inhibition assay
# Assay type: biochemical
# Description: Reactions are initiated by addition of the cyclic nucleotide substrate, and reactions are allowed to proceed for one hr at room temperature before being terminated through mixing with 15 uL 8 mg/mL yttrium silicate SPA beads (Amersham). […] IC50 values were calculated by non linear regression using XLfit (IDBS).
# [1] = SPA assay, 10 nM 3H-cAMP, 1 hour incubation, read-out: IC50
# Chain of PDE9 (O76083 whole entry): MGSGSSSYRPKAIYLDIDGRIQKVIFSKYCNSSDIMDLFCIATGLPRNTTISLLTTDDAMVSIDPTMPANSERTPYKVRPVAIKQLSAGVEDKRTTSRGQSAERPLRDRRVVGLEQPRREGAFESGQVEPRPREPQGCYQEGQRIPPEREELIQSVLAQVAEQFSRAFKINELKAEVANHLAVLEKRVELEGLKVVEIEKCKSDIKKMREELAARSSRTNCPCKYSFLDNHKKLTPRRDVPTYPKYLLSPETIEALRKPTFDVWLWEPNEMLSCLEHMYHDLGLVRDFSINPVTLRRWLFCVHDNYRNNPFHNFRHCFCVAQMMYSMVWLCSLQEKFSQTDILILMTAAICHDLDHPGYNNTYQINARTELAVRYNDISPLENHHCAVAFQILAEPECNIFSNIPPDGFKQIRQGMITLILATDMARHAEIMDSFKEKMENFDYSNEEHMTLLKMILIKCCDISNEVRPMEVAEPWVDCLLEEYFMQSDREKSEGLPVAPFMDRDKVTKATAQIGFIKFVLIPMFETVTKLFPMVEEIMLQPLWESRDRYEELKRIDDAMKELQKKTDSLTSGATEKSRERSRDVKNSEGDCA
IC50 [1],IC50,SMILES
26 nM,,"COc1ccc(C2CN(Cc3cn4c(C5CCCC5)ncc4c(=O)[nH]3)C2)cc1 [Compound 41, 3-cyclopentyl-6-[[3-(4-methoxyphenyl)azetidin-1-yl]methyl]-7h-imidazo[1,5-a]pyrazin-8-one]"
8 nM,,"CC(c1cn2c(C3CCCC3)ncc2c(=O)[nH]1)N1CC(Oc2ncccn2)C1 (stereo not drawn) [Compound 42, 3-cyclopentyl-6-[1-(3-pyrimidin-2-yloxyazetidin-1-yl)ethyl]-7h-imidazo[1,5-a]pyrazin-8-one]"
14 nM,,"CC1CN(Cc2ccccn2)CC1c1cn2c(-c3ccccc3)ncc2c(=O)[nH]1 (stereo not drawn) [Compound 43, 6-[4-methyl-1-(2-pyridylmethyl)pyrrolidin-3-yl]-3-phenyl-7h-imidazo[1,5-a]pyrazin-8-one]"
25 nM,,"O=c1[nH]c(CN2CC(c3ccc(F)cc3)C2)cn2c(C3CCOCC3)ncc12 [Compound 44, 6-[[3-(4-fluorophenyl)azetidin-1-yl]methyl]-3-tetrahydropyran-4-yl-7h-imidazo[1,5-a]pyrazin-8-one]"
1 nM,,"O=c1[nH]c(CN2CC(OCc3ccccc3)C2)cn2c(-c3ccc(F)cc3)ncc12 [Compound 45, 6-[(3-benzyloxyazetidin-1-yl)methyl]-3-(4-fluorophenyl)-7h-imidazo[1,5-a]pyrazin-8-one]"
6 nM,,"Cc1nc2ccccc2nc1OC1CN(Cc2cn3c(C4CCCC4)ncc3c(=O)[nH]2)C1 [Compound 46, 3-cyclopentyl-6-[[3-(3-methylquinoxalin-2-yl)oxyazetidin-1-yl]methyl]-7h-imidazo[1,5-a]pyrazin-8-one]"
,3 nM,"CC(c1cn2c(C3CCCC3)ncc2c(=O)[nH]1)N1CC(Oc2ccc(F)cc2)C1 (stereo not drawn) [Compound 47, 3-cyclopentyl-6-[1-[3-(4-fluorophenoxy)azetidin-1-yl]ethyl]-7h-imidazo[1,5-a]pyrazin-8-one]"
40 nM,,"CN(C)c1ccc(C2CN(Cc3cn4c(C5CCCC5)ncc4c(=O)[nH]3)C2)cc1 [Compound 48, 3-cyclopentyl-6-[[3-(4-dimethylaminophenyl)azetidin-1-yl]methyl]-7h-imidazo[1,5-a]pyrazin-8-one]"
16 nM,,"O=c1[nH]c(CN2CC(Oc3ccccc3F)C2)cn2c(-c3ccc(F)cc3)ncc12 [Compound 49, 6-[[3-(2-fluorophenoxy)azetidin-1-yl]methyl]-3-(4-fluorophenyl)-7h-imidazo[1,5-a]pyrazin-8-one]"
,21 nM,"O=c1[nH]c(CN2CC(Oc3ccccc3F)C2)cn2c(C3CCOCC3)ncc12 [Compound 50, 6-[[3-(2-fluorophenoxy)azetidin-1-yl]methyl]-3-tetrahydropyran-4-yl-7h-imidazo[1,5-a]pyrazin-8-one]"
7 nM,,"CN(C)c1ccc(C2CN(Cc3cn4c(-c5ccc(F)cc5)ncc4c(=O)[nH]3)C2)cc1 [Compound 51, 6-[[3-(4-dimethylaminophenyl)azetidin-1-yl]methyl]-3-(4-fluorophenyl)-7h-imidazo[1,5-a]pyrazin-8-one]"
49 nM,,"CC(c1cn2c(C3CCCC3)ncc2c(=O)[nH]1)N1CC(Oc2ccccc2F)C1 (stereo not drawn) [Compound 52, 3-cyclopentyl-6-[1-[3-(2-fluorophenoxy)azetidin-1-yl]ethyl]-7h-imidazo[1,5-a]pyrazin-8-one]"
22 nM,,"O=c1[nH]c(CN2CC(c3ncccn3)C2)cn2c(-c3ccc(F)cc3)ncc12 [Compound 53, 3-(4-fluorophenyl)-6-[(3-pyrimidin-2-ylazetidin-1-yl)methyl]-7h-imidazo[1,5-a]pyrazin-8-one]"
102 nM,,"O=c1[nH]c(CN2CC(c3ncccn3)C2)cn2c(C3CCOCC3)ncc12 [Compound 54, 6-[(3-pyrimidin-2-ylazetidin-1-yl)methyl]-3-tetrahydropyran-4-yl-7h-imidazo[1,5-a]pyrazin-8-one]"
9 nM,,"O=c1[nH]c(CN2CC(Oc3cnccn3)C2)cn2c(-c3ccc(F)cc3)ncc12 [Compound 55, 3-(4-fluorophenyl)-6-[(3-pyrazin-2-yloxyazetidin-1-yl)methyl]-7h-imidazo[1,5-a]pyrazin-8-one]"
